Test results reported in ChEMBL document CHEMBL5346937, “Repurposing 1,2,4-oxadiazoles as SARS-CoV-2 PLpro inhibitors and investigation of their possible viral entry blockade potential” (Eur J Med Chem, 2023).

Experiments:
[1] = biological target: Replicase polyprotein 1ab (Severe acute respiratory syndrome coronavirus 2) (UniProt P0DTD1); experiment: Inhibition of SARS-CoV-2 PLpro at 10 uM using Arg-Leu-Arg-Gly-Gly-AMC as substrate preincubated for 5 mins followed by substrate addition measured after 6 mins by fluorescence based assay relative to control; conditions: time 11.0 min
WI-38 = experiment: (§1) Cytotoxicity against human WI-38 cells assessed as reduction in cell viability incubated for 72 hrs by MTT assay; format: toxicity, cell-based; conditions: wi-38, 72 h
A549 = experiment: Cytotoxicity against human […] A549 cells assessed as reduction in cell viability incubated for 72 hrs by MTT assay; format: functional; conditions: for CC50: Homo sapiens, A549
[2] = biological target: Spike glycoprotein/Angiotensin-converting enzyme 2 (Severe acute respiratory syndrome coronavirus 2) (UniProt Q9BYF1+P0DTC2); experiment: Inhibition of SARS-CoV-2 spike protein RBD- human ACE2 interaction at 10 uM pretreated with SARS-CoV-2 spike RBD for 2 hrs followed by ACE2 addition and measured after 2 hrs by […] based ELISA analysis relative to control; format: protein assay; conditions: time 4.0 hrs
SARS-CoV-2 = experiment: Antiviral activity against SARS-CoV-2 assessed as inhibition of viral growth; format: functional, organism-based; conditions: Severe acute respiratory syndrome coronavirus 2
[3] = as §1; format: toxicity, cell-based; conditions: WI-38 cells
[4] = biological target: Spike glycoprotein/Angiotensin-converting enzyme 2 (Severe acute respiratory syndrome coronavirus 2, UniProt P0DTC2+Q9BYF1); experiment: Inhibition of SARS-CoV-2 spike protein RBD- human ACE2 interaction pretreated with SARS-CoV-2 spike RBD for 2 hrs followed by ACE2 addition and measured after 2 hrs by […] based ELISA analysis; format: protein assay
Spike glycoprotein/Angiotensin-converting enzyme 2, sequence (Q9BYF1 18-805 limits assumed, other chains not shown): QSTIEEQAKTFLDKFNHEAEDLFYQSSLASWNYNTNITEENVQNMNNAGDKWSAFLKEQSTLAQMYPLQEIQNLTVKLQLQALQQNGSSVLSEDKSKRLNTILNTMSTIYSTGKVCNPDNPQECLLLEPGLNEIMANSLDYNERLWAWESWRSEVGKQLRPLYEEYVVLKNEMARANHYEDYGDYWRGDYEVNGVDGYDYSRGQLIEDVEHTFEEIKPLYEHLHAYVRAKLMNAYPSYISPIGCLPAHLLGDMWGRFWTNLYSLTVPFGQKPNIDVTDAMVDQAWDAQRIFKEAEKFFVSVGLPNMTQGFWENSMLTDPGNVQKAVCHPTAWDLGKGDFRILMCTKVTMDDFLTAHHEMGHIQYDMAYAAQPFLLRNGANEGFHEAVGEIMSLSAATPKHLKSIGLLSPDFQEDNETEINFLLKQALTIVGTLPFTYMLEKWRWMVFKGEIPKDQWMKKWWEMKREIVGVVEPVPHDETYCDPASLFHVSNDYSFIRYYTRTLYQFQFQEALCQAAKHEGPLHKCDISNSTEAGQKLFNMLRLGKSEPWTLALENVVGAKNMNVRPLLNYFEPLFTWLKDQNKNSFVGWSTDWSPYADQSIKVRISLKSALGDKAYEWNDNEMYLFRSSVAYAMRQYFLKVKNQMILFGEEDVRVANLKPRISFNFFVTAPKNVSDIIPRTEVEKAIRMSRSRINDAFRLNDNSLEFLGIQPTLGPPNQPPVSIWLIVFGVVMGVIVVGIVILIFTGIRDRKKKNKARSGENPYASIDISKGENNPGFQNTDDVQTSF

[5] = biological target: Replicase polyprotein 1ab (Severe acute respiratory syndrome coronavirus 2, UniProt P0DTD1); experiment: Inhibition of SARS-CoV-2 PLpro using Arg-Leu-Arg-Gly-Gly-AMC as substrate preincubated for 5 mins followed by substrate addition measured after 6 mins by fluorescence based assay
[6] = Octanol/water partition coefficient, logP of the compound by HPLC analysis; format: physicochemical

Row | SMILES | inhibition [1] | CC50 (WI-38) | EC100 (WI-38) | EC100 (A549) | CC50 (A549) | inhibition [2] | IC50 (SARS-CoV-2) | CC50 at 72 h [3] | IC50 ([4]; read-out: IC50) | IC50 ([4]; read-out: pIC50 (converted)) | IC50 ([5]; read-out: IC50) | IC50 ([5]; read-out: pIC50 (converted)) | logP [6]
1 | CCOC(=O)CN1C(=O)COc2ccccc2-c2nc(no2)-c2ccccc21 | 18.1% | 31.6 µM | 6.313 µM | 7.127 µM | 14.2 µM | 15.6% | – | – | – | – | – | – | –
2 | [N-]=[N+]=Nc1ccccc1-c1noc(-c2ccccc2O)n1 | 1.1% | 38.5 µM | 7.701 µM | 6.707 µM | 28.2 µM | – | – | – | – | – | – | – | –
3 | CCN(CCO)CCCC(C)Nc1ccnc2cc(Cl)ccc12 (configuration not stated) [HYDROXYCHLOROQUINE] | – | – | – | – | – | – | 0.72 µM | – | – | – | – | – | –
4 | Nc1ccccc1-c1noc(-c2ccccc2)n1 | 20.8% | – | 7.299 µM | 5.886 µM | 28.7 µM | 23.3% | – | 36.5 µM | – | – | – | – | –
5 | O=CNc1ccccc1-c1noc(-c2ccccc2O)n1 | 35.1% | 40.6 µM | 8.116 µM | 15.708 µM | 31.4 µM | 44.3% | – | – | – | – | – | – | –
6 | Nc1ccccc1-c1nc(-c2ccc(C(F)(F)F)cc2)no1 | 5% | 5.78 µM | 1.156 µM | 0.373 µM | 2.37 µM | – | – | – | – | – | – | – | –
7 | Nc1ccccc1-c1noc(-c2ccccc2N)n1 | 16.2% | 48.7 µM | 9.738 µM | 12.25 µM | 29 µM | 26.1% | – | – | – | – | – | – | –
8 | Oc1ccccc1-c1noc(-c2ccccc2O)n1 | 11.7% | 26 µM | 5.208 µM | 3.36 µM | 19.5 µM | – | – | – | – | – | – | – | –
9 | O=C(O)CN1C(=O)COc2ccccc2-c2nc(no2)-c2ccccc21 | 5.9% | 23.8 µM | 5.727 µM | 3.695 µM | 19.6 µM | 10.6% | – | – | – | – | – | – | –
10 | Nc1ccccc1-c1noc(-c2ccccc2O)n1 | 13.6% | 32.4 µM | 6.474 µM | 4.114 µM | 22 µM | 18.1% | – | – | – | – | – | – | –
11 | CC(=O)Oc1ccccc1-c1nc(-c2ccccc2N(C(C)=O)C(C)=O)no1 | 17.1% | – | 0.641 µM | 0.207 µM | 20.5 µM | 44.4% | – | – | – | – | – | – | –
12 | Cc1ncc(COP(=O)([O-])O)c(/C=N/c2ccccc2-c2noc(-c3ccccc3O)n2)c1O.[Na+] | 13.9% | 3.21 µM | 4.956 µM | 2.718 µM | 1.03 µM | 26.1% | – | – | – | – | – | – | –
13 | Nc1ccccc1-c1noc(-c2ccncc2)n1 | 58.6% | 51.8 µM | 10.356 µM | 8.352 µM | 45.8 µM | 65.6% | – | – | 8.67 µM | 8.69 µM | 7.2 µM | 7.21 µM | 3.8
14 | Nc1ccccc1-c1nc(-c2ccccc2)no1 | 21.1% | 57.2 µM | 19.059 µM | 11.681 µM | 24.7 µM | 31.4% | – | – | – | – | – | – | –
15 | Cc1ncc(COP(=O)([O-])O)c(/C=N/c2ccccc2-c2noc(-c3ccccc3)n2)c1O.[Na+] | 22.5% | 10.1 µM | 2.03 µM | 0.655 µM | 6.46 µM | 36.7% | – | – | – | – | – | – | –
16 | CCN(CC)CCCC(C)Nc1ccnc2cc(Cl)ccc12 (configuration not stated) [CHLOROQUINE] | – | – | – | – | – | – | 1.13 µM | – | – | – | – | – | –
